From patent US8895585B2, “Nicotinamide derivative or salt thereof” (FUJIFILM Corporation, priority 2010, dated 2014)
Read-outs that look alike come from different tables or passages of the source. Blank lines part the entries; values can stand above or below the compound they belong to.

Target: T1, glutathione S-transferase (GST)-fused full-length human Syk protein (Homo sapiens, UniProt P43405)
T1 construct: (GST)-fused full-length human Syk protein; GST (glutathione S-transferase); purchased Carna Biosciences
Test: Syk enzyme assay
Format: biochemical
Procedure, shortened: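 Baculovirus-expressed enzyme (1.2 ng) was preincubated with compound in HEPES pH 7.0/MgCl2/DTT buffer, 2 min shaking then 13 min at room temperature. Biotin-EDPDYEWPSA-NH2 (0.4 μM final) and ATP (27 μM final) were added for 40 min at room temperature. EDTA stop, streptavidin-XL/PT66-K TR-FRET at 615/665 nm gave IC50.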

[1] = Syk enzyme assay, Test Example 1, read-out: IC50 of Syk-inhibitory activity
[2] = read-out: Syk-inhibitory activity (IC50)

Structure (SMILES): COCCOCCOc1cnc2cc(Nc3nc(N[C@@H]4CCCC[C@@H]4N)c(F)cc3C(N)=O)ccc2n1 (relative stereo) [Example 004-179, 6-(cis-2-aminocyclohexylamino)-5-fluoro-2-((2-(2-(2-methoxyethoxy)ethoxy)quinoxalin-6-yl)amino)nicotinamide]
IC50 [1]: < 0.01 µM

Structure (SMILES): CCOc1ccccc1-c1cncc(Nc2nc(N[C@@H]3CCCC[C@@H]3N)c(F)cc2C(N)=O)c1 (relative stereo) [Example 004-182, 6-(cis-2-aminocyclohexylamino)-2-((5-(2-ethoxyphenyl)pyridin-3-yl)amino)-5-fluoronicotinamide]
IC50 [1]: < 0.01 µM

Structure (SMILES): CC(C)COc1ccccc1-c1cncc(Nc2nc(N[C@@H]3CCCC[C@@H]3N)c(F)cc2C(N)=O)c1 (relative stereo) [Example 004-183, 6-(cis-2-aminocyclohexylamino)-5-fluoro-2-((5-(2-isobutoxyphenyl)pyridin-3-yl)amino)-nicotinamide]
IC50 [1]: 0.05 to 0.1 µM

Structure (SMILES): COCCOc1ccccc1-c1cncc(Nc2nc(N[C@@H]3CCCC[C@@H]3N)c(F)cc2C(N)=O)c1 (relative stereo) [Example 004-185, 6-(cis-2-aminocyclohexylamino)-5-fluoro-2-((5-(2-(2-methoxyethoxy)phenyl)pyridin-3-yl)amino)nicotinamide]
IC50 [1]: < 0.01 µM

Structure (SMILES): NC(=O)c1cc(F)c(N[C@@H]2CCCC[C@@H]2N)nc1Nc1cncc(-c2ccccc2O)c1 (relative stereo) [Example 004-186, 6-(cis-2-aminocyclohexylamino)-5-fluoro-2-((5-(2-hydroxyphenyl)pyridin-3-yl)amino)nicotinamide]
IC50 [1]: < 0.01 µM

Structure (SMILES): NC(=O)c1cc(F)c(N[C@@H]2CCCC[C@@H]2N)nc1Nc1cncc(COCc2ccccc2)c1 (relative stereo) [Example 004-189, 6-(cis-2-aminocyclohexylamino)-2-((5-((benzyloxy)methyl)pyridin-3-yl)amino)-5-fluoronicotinamide]
IC50 [1]: 0.05 to 0.1 µM

Structure (SMILES): NC(=O)c1cc(F)c(N[C@@H]2CCCC[C@@H]2N)nc1Nc1ccnc(COCc2ccccc2)c1 (relative stereo) [Example 004-192, 6-(cis-2-aminocyclohexylamino)-2-((2-((benzyloxy)methyl)pyridin-4-yl)amino)-5-fluoronicotinamide]
IC50 [1]: 0.05 to 0.1 µM

Structure (SMILES): NC(=O)c1cc(F)c(N[C@@H]2CCCC[C@@H]2N)nc1Nc1cncc(CO)c1 (relative stereo) [Example 004-193, 6-(cis-2-aminocyclohexylamino)-5-fluoro-2-((5-(hydroxymethyl)pyridin-3-yl)amino)nicotinamide]
IC50 [1]: 0.05 to 0.1 µM

Structure (SMILES): NC(=O)c1cc(F)c(N[C@@H]2CCCC[C@@H]2N)nc1Nc1ccnc(CO)c1 (relative stereo) [Example 004-194, 6-(cis-2-aminocyclohexylamino)-5-fluoro-2-((2-(hydroxymethyl)pyridin-4-yl)amino)nicotinamide]
IC50 [1]: 0.01 to 0.05 µM

Structure (SMILES): NC(=O)c1cc(F)c(N[C@@H]2CCCC[C@@H]2N)nc1Nc1ccc2nc(OCCCN3CCCC3=O)ccc2c1 (relative stereo) [Example 004-200, 6-(cis-2-aminocyclohexylamino)-5-fluoro-2-((2-(3-(2-oxopyrrolidin-1-yl)propoxy)quinolin-6-yl)amino)nicotinamide]
IC50 [1]: < 0.01 µM

Structure (SMILES): NC(=O)c1cc(F)c(N[C@@H]2CCCC[C@@H]2N)nc1Nc1ccc2nc(-n3nccn3)ccc2c1 (relative stereo) [Example 004-202, 2-((2-(2H-1,2,3-triazol-2-yl)quinolin-6-yl)amino)-6-(cis-2-aminocyclohexylamino)-5-fluoronicotinamide]
IC50 [1]: < 0.01 µM

Structure (SMILES): NC(=O)c1cc(F)c(N[C@@H]2CCCC[C@@H]2N)nc1Nc1ccc2nc(-n3cccn3)ccc2c1 (relative stereo) [Example 004-203, 2-((2-(1H-pyrazol-1-yl)quinolin-6-yl)amino)-6-(cis-2-aminocyclohexylamino)-5-fluoronicotinamide]
IC50 [1]: < 0.01 µM

Structure (SMILES): NC(=O)c1cc(F)c(N[C@@H]2CCCC[C@@H]2N)nc1Nc1cncc(-c2cccc(F)c2F)c1 (relative stereo) [Example 004-204, 6-(cis-2-aminocyclohexylamino)-2-((5-(2,3-difluorophenyl)pyridin-3-yl)amino)-5-fluoronicotinamide]
IC50 [1]: < 0.01 µM

Structure (SMILES): NC(=O)c1cc(F)c(N[C@@H]2CCCC[C@@H]2N)nc1Nc1cncc(-c2cc(F)ccc2F)c1 (relative stereo) [Example 004-205, 6-(cis-2-aminocyclohexylamino)-2-((5-(2,5-difluorophenyl)pyridin-3-yl)amino)-5-fluoronicotinamide]
IC50 [1]: < 0.01 µM

Structure (SMILES): NC(=O)c1cc(F)c(N[C@@H]2CCCC[C@@H]2N)nc1Nc1cncc(-c2cccc(Cl)c2F)c1 (relative stereo) [Example 004-206, 6-(cis-2-aminocyclohexylamino)-2-((5-(3-chloro-2-fluorophenyl)pyridin-3-yl)amino)-5-fluoronicotinamide]
IC50 [1]: < 0.01 µM

Structure (SMILES): NC(=O)c1cc(F)c(N[C@@H]2CCCC[C@@H]2N)nc1Nc1cncc(-c2cc(Cl)ccc2F)c1 (relative stereo) [Example 004-207, 6-(cis-2-aminocyclohexylamino)-2-((5-(5-chloro-2-fluorophenyl)pyridin-3-yl)amino)-5-fluoronicotinamide]
IC50 [1]: < 0.01 µM

Structure (SMILES): NC(=O)c1cc(F)c(N[C@@H]2CCCC[C@@H]2N)nc1Nc1ccc2nc(-n3cccn3)cnc2c1 (relative stereo) [Example 004-208, 2-((2-(1H-pyrazol-1-yl)quinoxalin-6-yl)amino)-6-(cis-2-aminocyclohexylamino)-5-fluoronicotinamide]
IC50 [1]: < 0.01 µM

The remaining lines, values ahead:

IC50 [1]: < 0.01 µM
Structure (SMILES): NC(=O)c1cc(F)c(N[C@@H]2CCCC[C@@H]2N)nc1Nc1cnc2cc(-n3nccn3)ccc2c1 (relative stereo) [Example 004-209, 2-((7-(2H-1,2,3-triazol-2-yl)quinolin-3-yl)amino)-6-(cis-2-aminocyclohexylamino)-5-fluoronicotinamide]

IC50 [1]: < 0.01 µM
Structure (SMILES): NC(=O)c1cc(F)c(N[C@@H]2CCCC[C@@H]2N)nc1Nc1cnc2cc(-n3cccn3)ccc2c1 (relative stereo) [Example 004-210, 2-((7-(1H-pyrazol-1-yl)quinolin-3-yl)amino)-6-(cis-2-aminocyclohexylamino)-5-fluoronicotinamide]

IC50 [1]: 0.1 to 1 µM
Structure (SMILES): NC(=O)c1cc(F)c(N[C@@H]2CCCC[C@@H]2N)nc1Nc1cncc(-n2ccccc2=O)c1 (relative stereo) [Example 004-211, 6-(cis-2-aminocyclohexylamino)-5-fluoro-2-((2-oxo-2H-[1,3′-bipyridin]-5′-yl)amino)nicotinamide]

IC50 [1]: 0.01 to 0.05 µM
Structure (SMILES): NC(=O)c1cc(F)c(N[C@@H]2CCCC[C@@H]2N)nc1Nc1cnc(N2CCOCC2)c(F)c1 (relative stereo) [Example 004-216, 6-(cis-2-aminocyclohexylamino)-5-fluoro-2-((5-fluoro-6-morpholinopyridin-3-yl)amino)nicotinamide]

IC50 [1]: < 0.01 µM
Structure (SMILES): NC(=O)c1cc(F)c(N[C@@H]2CCCC[C@@H]2N)nc1Nc1cncc(-c2cccc(N3CCOCC3)c2)c1 (relative stereo) [Example 004-221, 6-(cis-2-aminocyclohexylamino)-5-fluoro-2-((5-(3-morpholinophenyl)pyridin-3-yl)amino)nicotinamide]

IC50 [1]: 0.01 to 0.05 µM
Structure (SMILES): NC(=O)c1cc(F)c(N[C@@H]2CCCC[C@@H]2N)nc1Nc1cncc(-c2cccc(N3CCCC3=O)c2)c1 (relative stereo) [Example 004-225, 6-(cis-2-aminocyclohexylamino)-5-fluoro-2-((5-(3-(2-oxopyrrolidin-1-yl)phenyl)pyridin-3-yl)amino)nicotinamide]

IC50 [1]: 0.01 to 0.05 µM
Structure (SMILES): COc1cccc(-c2cncc(Nc3nc(N[C@@H]4CCCC[C@@H]4N)c(F)cc3C(N)=O)c2)n1 (relative stereo) [Example 004-230, 6-((cis-2-aminocyclohexyl)amino)-5-fluoro-2-((6-methoxy-[2,3′-bipyridin]-5′-yl)amino)nicotinamide]

IC50 [1]: 0.01 to 0.05 µM
Structure (SMILES): COc1ccc(-c2cncc(Nc3nc(N[C@@H]4CCCC[C@@H]4N)c(F)cc3C(N)=O)c2)cn1 (relative stereo) [Example 004-231, 6-((cis-2-aminocyclohexyl)amino)-5-fluoro-2-((6′-methoxy-[3,3′-bipyridin]-5-yl)amino)nicotinamide]

IC50 [1]: < 0.01 µM
Structure (SMILES): COc1cc(-c2cncc(Nc3nc(N[C@@H]4CCCC[C@@H]4N)c(F)cc3C(N)=O)c2)ccn1 (relative stereo) [Example 004-232, 6-((cis-2-aminocyclohexyl)amino)-5-fluoro-2-((2′-methoxy-[3,4′-bipyridine]-5-yl)amino)nicotinamide]

IC50 [1]: < 0.01 µM
Structure (SMILES): Cn1ccc2c(Nc3nc(N[C@@H]4CCCC[C@@H]4N)c(F)cc3C(N)=O)cccc21 (relative stereo) [Example 006-059, 6-(cis-2-aminocyclohexylamino)-5-fluoro-2-((1-methyl-1H-indol-4-yl)amino)nicotinamide]

IC50 [2]: ≤ 1 µM
Structure (SMILES): COc1ccc(Nc2nc(N[C@@H]3CCCC[C@@H]3N)c(F)cc2C(N)=O)c2cccnc12 (relative stereo) [Example 6-67, 6-(cis-2-aminocyclohexylamino)-5-fluoro-2-((8-methoxyquinolin-5-yl)amino)nicotinamide]

IC50 [2]: ≤ 1 µM
Structure (SMILES): NC(=O)c1cc(F)c(N[C@@H]2CCCC[C@@H]2N)nc1Nc1cccc2nsnc12 (relative stereo) [Example 6-68, 6-(cis-2-aminocyclohexylamino)-2-(benzo[c][1,2,5]thiadiazol-4-ylamino)-5-fluoronicotinamide]

IC50 [1]: 0.1 to 1 µM
Structure (SMILES): Cn1cc2cccc(Nc3nc(N[C@@H]4CCCC[C@@H]4N)c(F)cc3C(N)=O)c2n1 (relative stereo) [Example 006-074, 6-(cis-2-aminocyclohexylamino)-5-fluoro-2-((2-methyl-2H-indazol-7-yl)amino)nicotinamide]
